In patent US20090215713A1, “Use of atp for the manufacture of a medicament for the prevention and treatment of oxidative stress and related conditions” (priority 2004, published 2009):
Entries after “also recorded” stand apart in the source; their conditions may differ.

What was measured:
[1] = tested on: guinea pig alveolar macrophages; test: Guinea pig alveolar macrophages incubated with LPS and spin-trap DMPO; type: cell-based
Description: As mentioned above, ATP is known to enhance the oxidative burst of neutrophils and other phagocytic cells. […] In a study using guinea pig alveolar macrophages (according to (35, 36)) we confirmed the ATP dependent increase in H2O2 formation. […] This finding underlines the importance and practical relevance of the present invention that ATP attenuates of hydroxyl radical DMPO adduct formation in a more chemically oriented set-up. Our finding that the formation of the DMPO—OH adducts is inhibited by the presence of ATP, also in incubations with alveolar macrophages, is of great promise for the protective effect of ATP in diseases and conditions in which oxidative stress plays a predominant role, as discussed on the previous pages.

[2] = tested on: TNF-α; test: LPS+PHA-induced TNF-α secretion in whole blood from healthy subjects (ELISA); type: cell-based, human
Method: FIG. 7 Effect of ATP on LPS+PHA-induced TNF-α secretion in whole blood from healthy subjects. The whole blood was exposed to 10 μg/ml LPS and 1 μg/ml PHA with indicated concentrations of ATP for 24 h. The TNF-α released into the supernatants was analyzed using the ELISA method. Results are expressed in percentage, 100% being the TNF-α release under stimulation by LPS+PHA without ATP. […] Data are expressed as the mean values; error bars represent SEM. *, different from control (stimulation by LPS+PHA without ATP) (P<0.05).
FIG. 13 Effect of different purinergic compounds on LPS+PHA-induced TNF-α secretion in whole blood. The whole blood was exposed to 10 μg/ml LPS and 1 μg/ml PHA with the indicated purinergic compounds at the concentration of 300 μM for 24 h. The TNF-α released into the supernatant was analyzed using the ELISA method. Results are expressed in percentage, 100% being the TNF-α release under stimulation by LPS+PHA without addition of a purinergic compound (control). […] The TNF-α release induced by LPS+PHA from whole blood was not inhibited by UTP, UDP or CTP. Data are expressed as the mean values; error bars represent SEM.
(§1) Blood was collected from 8 healthy subjects in heparin containing vacutainer tubes. All incubations were performed in duplicate. ATP was dissolved in RPMI 1640 culture medium, at a final concentration of 1-300 μM, and blood pre-incubated with ATP at 5% CO2 at 37 DC for 30 min. After stimulation with LPS en PHA (10 and 1 μg/ml final concentration, respectively), the plates were incubated in 5% CO2 at 37° C. for 24 h. Cell-free supernatant fluids were then collected by centrifugation (6000 rpm, 10 min at 4° C.) and stored at −20° C. until tested for presence of cytokines. All cytokines were quantified by means of PeliKine Compact human ELISA kits (CLB/Sanquin, The Netherlands), based on appropriate and validated sets of monoclonal antibodies.
Whole blood was collected and stimulated with LPS+PHA as described for Experiment 2. ATP, dissolved in RPMI 1640 culture medium, was added to the blood at a final concentration of 1-1000 μM. The agonists were added in the same way as ATP, however their stock solutions are prepared in PBS and further diluted in medium. All incubations are performed in duplicate.

[3] = tested on: TNF-α; test: LPS+PHA-induced TNF-α secretion in whole blood under oxidative stress (H2O2); type: cell-based, human
Method: FIG. 10 Effect of ATP on LPS+PHA-induced TNF-α secretion in whole blood from healthy subjects under conditions of oxidative stress. Two concentrations of H2O2 (1 and 10 mM) were added to whole blood, followed by the incubation with the concentrations of ATP. Then, blood was exposed to 10 μg/ml LPS and 1 μg/ml PHA, and incubated for 24 h. The TNF-α released into the supernatants was analyzed using the ELISA method. […] Data are expressed as the mean values; error bars represent SEM.
(§2) Whole blood of healthy subjects was collected as described for Experiment 2, and pre-incubated with 1 or 10 mM H2O2 at 5% CO2 and 37° C. for 15 min. Then, ATP was added to the blood at final concentrations of 1-300 μM for the 30 min incubation step, and then incubated as in Experiment 2 with LPS/PHA for 24 hours.

[4] = previous study, ATP infusion during 30 hrs; cited from earlier work
[5] = tested on: IL-6; test: LPS+PHA-induced IL-6 secretion in whole blood under oxidative stress (H2O2); type: cell-based, human; details: absence or presence of H2O2 (1 and 10 mM)
Method: FIG. 12 Effect of ATP on LPS+PHA-induced IL-6 secretion in whole blood from healthy subjects under conditions of oxidative stress. Two concentrations of H2O2 (1 and 10 mM) were added to whole blood, together with the indicated concentrations of ATP. Then, blood was exposed to 10 μg/ml LPS and 1 μg/ml PHA, and incubated for 24 h. The IL-6 released into the supernatants was analyzed using the ELISA method. […] Data are expressed at the mean values; error bars represent SEM.
as §2

[6] = Randomized clinical trial of ATP in advanced non-small-cell lung cancer (prior art); type: in vivo, human; details: unpublished data 2005
[7] = ESR measurement of DMPO—OH spin adducts during Fenton chemistry; type: biochemical
Method: The effect of ATP on the formation or scavenging of hydroxyl radicals, generated by Fenton reagents was measured as DMPO—OH spin adducts in ESR spectra. The ESR studies were performed at room temperature using a Bruker EMX 1273 spectrometer equipped with an ER 4119HS high sensitivity cavity and 12 kW power supply. The following instrument conditions were used: scan range, 60 G; center magnetic field, 3490 G; modulation amplitude, 1.0 G; microwave frequency, 9.86 GHz; time constant, 40.96 ms, scan time, 20.48 ms; number of scans, 50. OH radicals were generated by the Fenton reaction, and 5,5-dimethyl-1-pyrroline N-oxide (DMPO) was used for trapping hydroxyl radicals. Fifty microliters of 10 mM H2O2, 50 μl of 250 mM DMPO, 50 μl milliQ, 50 μl milliQ (control) or sample, and 50 μl 5 mM FeSO4/5 mM EDTA were mixed, and then transferred to a capillary glass tube. After 2 minutes, DMPO—OH spin adducts were measured by ESR. Quantification of the spectra was performed by peak integration using the WIN-EPR spectrum manipulation program.
Electron spin resonance (ESR) studies were performed at room temperature using a Bruker EMX 1273 spectrometer equipped with an ER 4119HS high sensitivity cavity and 12 kW power supply. The following instrument conditions were used: scan range, 60 G; center magnetic field, 3490 G; modulation amplitude, 1.0 G; microwave frequency, 9.86 GHz; time constant, 40.96 ms, scan time, 20.48 ms; number of scans, 50. OH radicals were generated by the Fenton reaction, and 5,5-Dimethyl-1-pyrroline N-oxide (DMPO) was used for trapping hydroxyl radicals. Fifty microliters of 10 mM H2O2, 50 μl 250 mM DMPO, 50 μl milliQ, 50 μl milliQ (blanco) or sample and 50 μl 5 mM FeSO4/5 mM EDTA were mixed, transferred to a capillary glass tube and the DMPO—OH spin adducts were measured after 2 minutes by ESR. Quantification of the spectra (in arbitrary units) was performed by peak integration using the WIN-EPR spectrum manipulation program.

[8] = tested on: IL-6; test: LPS+PHA-induced IL-6 secretion in whole blood from healthy subjects (ELISA); type: cell-based, human; details: indicated ATP concentrations, 24 h
Method: FIG. 9 Effect of ATP on LPS+PHA-induced IL-6 secretion in whole blood from healthy subjects. The whole blood was exposed to 10 μg/ml LPS and 1 μg/ml PHA with indicated concentrations of ATP for 24 h. The IL-6 released into the supernatants was analyzed using the ELISA method. Results are expressed in percentage, 100% being the IL-6 release under stimulation by LPS+PHA without ATP. […] Data are expressed at the mean values; error bars represent SEM.
as §1

Nc1ncnc2c1ncn2[C@@H]1O[C@H](COP(=O)(O)OP(=O)(O)OP(=O)(O)O)[C@@H](O)[C@H]1O [ATP, Adenosine 5′-triphosphate]
effect on H2O2 formation [1]: increase
effect on DMPO—OH adduct formation ([1]; macrophages incubated with LPS): inhibited
effect of purinergic compound on LPS+PHA-induced TNF-α release ([2]; 300 μM, 24 h): greatest inhibition
effect on inhibiting TNFα and stimulating IL-10 production ([2]; LPS-PHA stimulated whole blood, Experiment 4): more effective
effect on LPS+PHA-induced TNF-α release ([2]; indicated ATP concentrations, 24 h): significantly inhibited
effect on LPS+PHA-induced TNF-α release ([3]; 1 or 10 mM H2O2): significantly inhibited
effect on TNF-α release ([3]; ATP below 100 μM, 1 or 10 mM H2O2): did not affect
inhibition at 300 µM ([3]; Homo sapiens, 300 μM ATP, 1 or 10 mM H2O2, LPS-PHA, read-out: inhibition of TNF-α release): ~50%
life-threatening side effects [4]: did not find any
effect on LPS+PHA-induced IL-6 release [5]: no effect; also recorded: not influenced
effect on blood sedimentation rate [6]: neither an effect
effect on DMPO—OH spin adduct formation ([7]; 100 μM): significant inhibition
inhibition of the DMPO—OH spin adduct formation ([7]; highest concentration used (range 0.1 mM-10 mM)): 80% and ≈ 80%
effect on DMPO—OH spin adduct formation vs control (buffer) ([7]; representative ESR spectra, FIG. 1): strongly inhibited
effect on LPS+PHA-induced IL-6 release [8]: No effect; also recorded: not influenced
